In PMC11576293, “New series of 4,6-diaryl pyrimidines: facile synthesis and antiproliferative activity as dual EGFR/VEGFR-2 inhibitors” (Frontiers in Chemistry, 2024):

Experiments:
Test in all cases: NCI-60 single-dose screen
Assay type in all cases: cell-based
[1] = test system: SNB-75; settings: Homo sapiens, single dose 10 µM, '-' = no inhibition, read-out: % Growth Inhibition
Description: (§1) The National Cancer Institute’s Developmental Therapeutic Program (www.dtp.nci.nih.gov) has tested compounds 9–29 (except compounds 21 and 22) against 60 cancer cell lines from nine types (leukemia, lung, colon, CNS, melanoma, ovarian, renal, prostate, and breast cancer) at a single dose (10 μM) ([El-Sherief et al., 2018]). […] The most sensitive cells included leukemia (SR, K-562, and MOLT-4), lung (NCI-H522, […], and EKVX), breast (MCF-7 and T-47D), colon (HCT-15 and HT-29), and ovarian (NCI/ADR-RES).
(§2) The National Cancer Institute’s Developmental Therapeutic Program (www.dtp.nci.nih.gov) evaluated compounds 9–29 (excluding 21 and 22) against 60 cancer cell lines from nine categories (leukemia, lung, colon, CNS, melanoma, ovarian, renal, prostate, and breast cancer) at a single dose (10 μM) ([El-Sherief et al., 2018]). See Supplementary Material A1 for more details.

[2] = test system: NCI/ADR-RES; settings: Homo sapiens, single dose 10 µM, '-' = no inhibition, read-out: % Growth Inhibition
Description: as §1, §2

[3] = test system: IGROV1; settings: Homo sapiens, IGROV-1, single dose 10 µM, '-' = no inhibition, read-out: % Growth Inhibition
Description: as §1, §2

[4] = test system: ACHN 1; settings: Homo sapiens, single dose 10 µM, '-' = no inhibition, read-out: % Growth Inhibition
Description: as §1, §2

[5] = test system: SK-MEL-5; settings: Homo sapiens, single dose 10 µM, '-' = no inhibition, read-out: % Growth Inhibition
Description: as §1, §2

[6] = test system: SN12C; settings: Homo sapiens, single dose 10 µM, '-' = no inhibition, read-out: % Growth Inhibition
Description: as §1, §2

[7] = test system: TK-10; settings: Homo sapiens, single dose 10 µM, '-' = no inhibition, read-out: % Growth Inhibition
Description: as §1, §2

[8] = test system: SF-268; settings: Homo sapiens, single dose 10 µM, '-' = no inhibition, read-out: % Growth Inhibition
Description: as §1, §2

[9] = test system: NCI-H23; settings: Homo sapiens, single dose 10 µM, '-' = no inhibition, read-out: % Growth Inhibition
Description: as §1, §2

[10] = test system: MDA-MB231/ATCC; settings: Homo sapiens, MDA-MB-231, single dose 10 µM, '-' = no inhibition, read-out: % Growth Inhibition
Description: as §1, §2

[11] = test system: UO-31; settings: Homo sapiens, single dose 10 µM, '-' = no inhibition, read-out: % Growth Inhibition
Description: as §1, §2

[12] = test system: HCC-2998; settings: Homo sapiens, single dose 10 µM, '-' = no inhibition, read-out: % Growth Inhibition
Description: as §1, §2

[13] = test system: SK-MEL-28; settings: Homo sapiens, single dose 10 µM, '-' = no inhibition, read-out: % Growth Inhibition
Description: as §1, §2

[14] = test system: OVCAR-5; settings: Homo sapiens, single dose 10 µM, '-' = no inhibition, read-out: % Growth Inhibition
Description: as §1, §2

[15] = test system: U251; settings: Homo sapiens, U-251, single dose 10 µM, '-' = no inhibition, read-out: % Growth Inhibition
Description: as §1, §2

[16] = test system: OVCAR-4; settings: Homo sapiens, single dose 10 µM, '-' = no inhibition, read-out: % Growth Inhibition
Description: as §1, §2

[17] = test system: OVCAR-8; settings: Homo sapiens, single dose 10 µM, '-' = no inhibition, read-out: % Growth Inhibition
Description: as §1, §2

[18] = test system: K-562; settings: Homo sapiens, K562, single dose 10 µM, '-' = no inhibition, read-out: % Growth Inhibition
Description: as §1, §2

[19] = test system: COLO 205; settings: Homo sapiens, single dose 10 µM, '-' = no inhibition, read-out: % Growth Inhibition
Description: as §1, §2

[20] = test system: KM12; settings: Homo sapiens, single dose 10 µM, '-' = no inhibition, read-out: % Growth Inhibition
Description: as §1, §2

[21] = test system: RXF 393; settings: Homo sapiens, single dose 10 µM, '-' = no inhibition, read-out: % Growth Inhibition
Description: as §1, §2

[22] = test system: OVCAR-3; settings: Homo sapiens, single dose 10 µM, '-' = no inhibition, read-out: % Growth Inhibition
Description: as §1, §2

[23] = test system: NCI-H322M; settings: Homo sapiens, single dose 10 µM, '-' = no inhibition, read-out: % Growth Inhibition
Description: as §1, §2

[24] = test system: NCI-H460; settings: Homo sapiens, single dose 10 µM, '-' = no inhibition, read-out: % Growth Inhibition
Description: as §1, §2

[25] = test system: EKVX; settings: Homo sapiens, single dose 10 µM, '-' = no inhibition, read-out: % Growth Inhibition
Description: as §1, §2

[26] = test system: PC-3; settings: Homo sapiens, single dose 10 µM, '-' = no inhibition, read-out: % Growth Inhibition
Description: as §1, §2

[27] = test system: UACC-62; settings: Homo sapiens, single dose 10 µM, '-' = no inhibition, read-out: % Growth Inhibition
Description: as §1, §2

[28] = test system: A498; settings: Homo sapiens, single dose 10 µM, '-' = no inhibition, read-out: % Growth Inhibition
Description: as §1, §2

[29] = test system: A549/ATCC; settings: Homo sapiens, single dose 10 µM, '-' = no inhibition, read-out: % Growth Inhibition
Description: as §1, §2

[30] = test system: MDA-MB-468; settings: Homo sapiens, single dose 10 µM, '-' = no inhibition, read-out: % Growth Inhibition
Description: as §1, §2

[31] = test system: SK-MEL-2; settings: Homo sapiens, single dose 10 µM, '-' = no inhibition, read-out: % Growth Inhibition
Description: as §1, §2

[32] = test system: UACC-257; settings: Homo sapiens, single dose 10 µM, '-' = no inhibition, read-out: % Growth Inhibition
Description: as §1, §2

[33] = test system: DU-145; settings: Homo sapiens, single dose 10 µM, '-' = no inhibition, read-out: % Growth Inhibition
Description: as §1, §2

[34] = test system: HOP-92; settings: Homo sapiens, single dose 10 µM, '-' = no inhibition, read-out: % Growth Inhibition
Description: as §1, §2

[35] = test system: HOP-62; settings: Homo sapiens, single dose 10 µM, '-' = no inhibition, read-out: % Growth Inhibition
Description: as §1, §2

[36] = test system: SNB-19; settings: Homo sapiens, single dose 10 µM, '-' = no inhibition, read-out: % Growth Inhibition
Description: as §1, §2

[37] = test system: HCT-116; settings: Homo sapiens, single dose 10 µM, '-' = no inhibition, read-out: % Growth Inhibition
Description: as §1, §2

[38] = test system: SR; settings: Homo sapiens, single dose 10 µM, '-' = no inhibition, read-out: % Growth Inhibition
Description: as §1, §2

[39] = test system: LOX IMVI; settings: Homo sapiens, single dose 10 µM, '-' = no inhibition, read-out: % Growth Inhibition
Description: as §1, §2

[40] = test system: CAKI-1; settings: Homo sapiens, single dose 10 µM, '-' = no inhibition, read-out: % Growth Inhibition
Description: as §1, §2

[41] = test system: RPMI-8226; settings: Homo sapiens, single dose 10 µM, '-' = no inhibition, read-out: % Growth Inhibition
Description: as §1, §2

[42] = test system: MCF7; settings: Homo sapiens, single dose 10 µM, '-' = no inhibition, read-out: % Growth Inhibition
Description: as §1, §2

[43] = test system: 786-0; settings: Homo sapiens, single dose 10 µM, '-' = no inhibition, read-out: % Growth Inhibition
Description: as §1, §2

[44] = test system: MDA-MB-435; settings: Homo sapiens, single dose 10 µM, '-' = no inhibition, read-out: % Growth Inhibition
Description: as §1, §2

[45] = test system: BT-549; settings: Homo sapiens, single dose 10 µM, '-' = no inhibition, read-out: % Growth Inhibition
Description: as §1, §2

[46] = test system: HL-60(TB); settings: Homo sapiens, single dose 10 µM, '-' = no inhibition, read-out: % Growth Inhibition
Description: as §1, §2

[47] = test system: MALME-3M; settings: Homo sapiens, single dose 10 µM, '-' = no inhibition, read-out: % Growth Inhibition
Description: as §1, §2

[48] = test system: NCI-H522; settings: Homo sapiens, single dose 10 µM, '-' = no inhibition, read-out: % Growth Inhibition
Description: as §1, §2

SMILES: CCSc1nc(-c2ccc(Cl)cc2)cc(-c2ccc(OC)cc2)n1 [Compound 10, 4-(4-Chlorophenyl)-2-(ethylthio)-6-(4-methoxyphenyl)pyrimidine]
- inhibition at 10 µM [1]: 3%
- inhibition at 10 µM [2]: 1.42%
- inhibition at 10 µM [3]: < 0%
- inhibition at 10 µM [4]: 2.57%
- inhibition at 10 µM [5]: 3.36%
- inhibition at 10 µM [6]: 0.46%
- inhibition at 10 µM [7]: 0.94%
- inhibition at 10 µM [8]: < 0%
- inhibition at 10 µM [9]: 0.32%
- inhibition at 10 µM [10]: < 0%
- inhibition at 10 µM [11]: 10.5%
- inhibition at 10 µM [12]: < 0%
- inhibition at 10 µM [13]: < 0%
- inhibition at 10 µM [14]: < 0%
- inhibition at 10 µM [15]: 4.88%
- inhibition at 10 µM [16]: 12.9%
- inhibition at 10 µM [17]: < 0%
- inhibition at 10 µM [18]: 11.5%
- inhibition at 10 µM [19]: < 0%
- inhibition at 10 µM [20]: 1.5%
- inhibition at 10 µM [21]: < 0%
- inhibition at 10 µM [22]: < 0%
- inhibition at 10 µM [23]: < 0%
- inhibition at 10 µM [24]: < 0%
- inhibition at 10 µM [25]: 7.83%
- inhibition at 10 µM [26]: < 0%
- inhibition at 10 µM [27]: < 0%
- inhibition at 10 µM [28]: 3.38%
- inhibition at 10 µM [29]: 11.2%
- inhibition at 10 µM [30]: < 0%
- inhibition at 10 µM [31]: 6.03%
- inhibition at 10 µM [32]: < 0%
- inhibition at 10 µM [33]: < 0%
- inhibition at 10 µM [34]: < 0%
- inhibition at 10 µM [35]: < 0%
- inhibition at 10 µM [36]: 0.21%
- inhibition at 10 µM [37]: 4.3%
- inhibition at 10 µM [38]: 19.4%
- inhibition at 10 µM [39]: < 0%
- inhibition at 10 µM [40]: 13.3%
- inhibition at 10 µM [41]: 6.56%
- inhibition at 10 µM [42]: 25.5%
- inhibition at 10 µM [43]: 3.07%
- inhibition at 10 µM [44]: 8.38%
- inhibition at 10 µM [45]: < 0%
- inhibition at 10 µM [46]: 6.15%
- inhibition at 10 µM [47]: < 0%
- inhibition at 10 µM [48]: 8.82%

SMILES: CCCSc1nc(-c2ccc(Cl)cc2)cc(-c2ccc(OC)cc2)n1 [Compound 11, 4-(4-Chlorophenyl)-6-(4-methoxyphenyl)-2-(propylthio)pyrimidine]
- inhibition at 10 µM [1]: < 0%
- inhibition at 10 µM [2]: < 0%
- inhibition at 10 µM [3]: < 0%
- inhibition at 10 µM [4]: < 0%
- inhibition at 10 µM [5]: 3.98%
- inhibition at 10 µM [6]: 6.25%
- inhibition at 10 µM [7]: < 0%
- inhibition at 10 µM [8]: < 0%
- inhibition at 10 µM [9]: < 0%
- inhibition at 10 µM [10]: < 0%
- inhibition at 10 µM [11]: 9.15%
- inhibition at 10 µM [12]: < 0%
- inhibition at 10 µM [13]: < 0%
- inhibition at 10 µM [14]: < 0%
- inhibition at 10 µM [15]: 5.99%
- inhibition at 10 µM [16]: < 0%
- inhibition at 10 µM [17]: 2.49%
- inhibition at 10 µM [18]: 6.55%
- inhibition at 10 µM [19]: < 0%
- inhibition at 10 µM [20]: 1.24%
- inhibition at 10 µM [21]: < 0%
- inhibition at 10 µM [22]: < 0%
- inhibition at 10 µM [23]: < 0%
- inhibition at 10 µM [24]: < 0%
- inhibition at 10 µM [25]: 6.92%
- inhibition at 10 µM [26]: < 0%
- inhibition at 10 µM [27]: 18.1%
- inhibition at 10 µM [28]: 2.73%
- inhibition at 10 µM [29]: 6.74%
- inhibition at 10 µM [30]: 7.92%
- inhibition at 10 µM [31]: 7.18%
- inhibition at 10 µM [32]: < 0%
- inhibition at 10 µM [33]: 0.44%
- inhibition at 10 µM [34]: < 0%
- inhibition at 10 µM [35]: < 0%
- inhibition at 10 µM [36]: 1.03%
- inhibition at 10 µM [37]: < 0%
- inhibition at 10 µM [38]: 14.6%
- inhibition at 10 µM [39]: < 0%
- inhibition at 10 µM [40]: 7.98%
- inhibition at 10 µM [41]: < 0%
- inhibition at 10 µM [42]: 4.02%
- inhibition at 10 µM [43]: 0.11%
- inhibition at 10 µM [44]: 1.63%
- inhibition at 10 µM [45]: < 0%
- inhibition at 10 µM [46]: 13.5%
- inhibition at 10 µM [47]: < 0%
- inhibition at 10 µM [48]: 9.17%
